From patent US11806342B2, “Diiodohydroxyquinoline for the treatment of clostridium difficile infection” (Purdue Research Foundation, priority 2019, dated 2023)
Structures can show the parent of a compound that is named as a salt. Where two headings read alike, the source gives them in different places.

How the values were obtained:
C. difficile ATCC 43255 = experiment: Initial screening of antiparasitic drugs, broth microdilution MIC; assay type: cell-based, Clostridium difficile
Experimental: (§1) C. difficile strains were grown anaerobically on brain heart infusion supplemented (BHIS) agar plates at 37° C. for 48 hours. Afterwards, a bacterial solution equivalent to 0.5 McFarland standard was prepared and diluted in (BHIS) broth to achieve a bacterial concentration of about 5×10^5 CFU/mL. Drugs were added and serially diluted along the plates. Plates were then, incubated anaerobically at 37° C. for 48 hours. MICs reported in Table (1) are the minimum concentrations of the drugs that could completely suppress the visual growth of bacteria.

[1] = system: C. difficile ATCC BAA-1870; experiment: as above; assay type: cell-based, Clostridium difficile
Experimental: as §1

[2] = Clostridioides difficile, ATCC43255
[3] = Clostridioides difficile, ATCC43255, initial screening, C. difficile ATCC 43255, read-out: MIC
[4] = Clostridioides difficile, initial screening, C. difficile ATCC BAA 1870, read-out: MIC

| MIC (C. difficile ATCC 43255; [3]) [µg/mL] | MIC [1, 4] [µg/mL] | Structure (SMILES) | other results |
| --- | --- | --- | --- |
|  |  | CCCSc1ccc2nc(NC(=O)OC)[nH]c2c1 [Albendazole, albendazole] | MIC (C. difficile ATCC 43255; [2]): > 128 µg/mL; MIC ([1]; Clostridioides difficile): > 128 µg/mL |
|  |  | CC(C)OC(=O)Nc1ccc2nc(-c3cscn3)[nH]c2c1 [Cambendazole, cambendazole] | MIC (C. difficile ATCC 43255; initial screening, C. difficile ATCC 43255): >128 µg/mL; MIC ([1]; initial screening, C. difficile ATCC BAA 1870): >128 µg/mL |
| > 128 | > 128 | COC(=O)Nc1nc2ccc(C(=O)c3ccccc3)cc2[nH]1 [Mebendazole, mebendazole] |  |
| > 128 | > 128 | NC[C@@H]1O[C@H](O[C@H]2[C@@H](O)[C@H](O[C@@H]3[C@@H](O)[C@H](N)C[C@H](N)[C@H]3O[C@H]3O[C@H](CO)[C@@H](O)[C@H](O)[C@H]3N)O[C@@H]2CO)[C@H](N)[C@@H](O)[C@@H]1O [Paromomycin, paromomycin sulfate] |  |
| > 128 | > 128 | O=C(C1CCCCC1)N1CC(=O)N2CCc3ccccc3C2C1 (stereo not drawn) [Praziquantel, praziquantel] |  |
| > 128 | > 128 | CN1CCCN=C1/C=C/c1cccs1 [Pyrantel Pamoate, pyrantel pamoate] |  |
| > 128 | > 128 | CCc1nc(N)nc(N)c1-c1ccc(Cl)cc1 [Pyrimethamine, pyrimethamine] |  |
|  |  | CCC[S+]([O-])c1ccc2[nH]c(NC(=O)OC)nc2c1 (stereo not drawn) [Ricobendazole, ricobendazole] | MIC (C. difficile ATCC 43255; [2]): > 128 µg/mL; MIC ([1]; Clostridioides difficile): > 128 µg/mL |
| > 128 | > 128 | c1ccc2[nH]c(-c3cscn3)nc2c1 [Thiabendazole, thiabendazole] |  |
